In EPA's ToxValDB 9.5 (doi:10.2903/j.efsa.2009.239r):
Values after ≈ are worked out from the molar mass of the structure shown.

Assays:
[1] = tested on: Tagia sp.; conditions: acute; duration: 14 days; mortality
[2] = tested on: Daphnia magna; conditions: acute; duration: 48 hours; mortality
[3] = tested on: Hypoaspis aculeifer; conditions: chronic/long-term, duration: 14 days
[4] = tested on: Apis mellifera; conditions: acute; duration: 48 hours; dermal; mortality
[5] = tested on: Bibionidae; conditions: chronic/long-term; duration: 28 days
[6] = tested on: Canidae; conditions: oral, Dog Other, clinical signs
[7] = tested on: Chrysoperla externa; conditions: not reported; mortality
[8] = tested on: Coturnix japonica; conditions: acute, oral, mortality
[9] = tested on: Colinus virginianus
[10] = tested on: Lepomis macrochirus; conditions: acute; duration: 96 hours; mortality
[11] = tested on: Rattus norvegicus
[12] = tested on: Anas platyrhynchos; conditions: oral, mortality

For `CCOC(=O)CCN(SN(C)C(=O)Oc1cccc2c1OC(C)(C)C2)C(C)C` [Benfuracarb], the LC50 [1] was 58 mg/kg, the NOEC [1] was less than 10 mg/kg and the LC50 [2] was 0.0099 µg/mL (≈ 0.0241 µM). The LEL ([3]; mortality) was 1000 g/ha, the LEL ([3]; reproduction) was 1000 g/ha and the LD50 [4] was 0.19 µg/piece. It also gave an NOEC [5] of 0.001 mg/L, an NOAEL ([6]; chronic, duration: 6 months) of 1 mg/kg-day and an NOAEL ([6]; chronic, duration: 24 months) of 1 mg/kg-day. It also gave an NOAEL ([6]; subchronic, duration: 13 weeks) of 1 mg/kg-day, an LD50 [7] of 5.2 g/ha and an LD50 ([8]; F) of 39.9 mg/kg-day. It also gave an LD50 ([8]; M) of 48.3 mg/kg-day, an LC50 ([9]; acute, oral, diet, mortality) of 179 mg/kg-day and an NOEL ([9]; reproduction developmental) of 8.93 mg/kg-day. The LC50 [10] was 0.017 µg/mL (≈ 0.0414 µM), the LD50 ([11]; acute, oral, mortality) was 205 mg/kg-day and the NOAEL ([11]; reproduction developmental, reproduction) was 1.2 mg/kg-day. The NOAEL ([11]; short-term, duration: 28 days, clinical signs) was 1.8 mg/kg-day, the LD50 ([12]; acute, unspecified) was 19.8 mg/kg-day and the LC50 ([12]; short-term, feed) was 15 mg/kg-day.
